Experimental data: paper PMC3914206

What was measured:
Format in all cases: binding
panel of 442 kinases [1] = target: T1, panel of 442 kinases (Homo sapiens, UniProt O00506); settings: kinase YSK1; compound concentration 10 µM
T1 construct: purchased KINOMEscan
Description: (§1) We assessed the selectivity of members of this scaffold using the KINOMEscan methodology across a near comprehensive panel of 442 kinases [[18,27]].

panel of 442 kinases [2] = target: T2, panel of 442 kinases (Homo sapiens, UniProt P00533, L861Q); settings: Compound Concentration 10 µM
T2 construct: purchased KINOMEscan
T2 sequence (P00533 25-1210 L861Q): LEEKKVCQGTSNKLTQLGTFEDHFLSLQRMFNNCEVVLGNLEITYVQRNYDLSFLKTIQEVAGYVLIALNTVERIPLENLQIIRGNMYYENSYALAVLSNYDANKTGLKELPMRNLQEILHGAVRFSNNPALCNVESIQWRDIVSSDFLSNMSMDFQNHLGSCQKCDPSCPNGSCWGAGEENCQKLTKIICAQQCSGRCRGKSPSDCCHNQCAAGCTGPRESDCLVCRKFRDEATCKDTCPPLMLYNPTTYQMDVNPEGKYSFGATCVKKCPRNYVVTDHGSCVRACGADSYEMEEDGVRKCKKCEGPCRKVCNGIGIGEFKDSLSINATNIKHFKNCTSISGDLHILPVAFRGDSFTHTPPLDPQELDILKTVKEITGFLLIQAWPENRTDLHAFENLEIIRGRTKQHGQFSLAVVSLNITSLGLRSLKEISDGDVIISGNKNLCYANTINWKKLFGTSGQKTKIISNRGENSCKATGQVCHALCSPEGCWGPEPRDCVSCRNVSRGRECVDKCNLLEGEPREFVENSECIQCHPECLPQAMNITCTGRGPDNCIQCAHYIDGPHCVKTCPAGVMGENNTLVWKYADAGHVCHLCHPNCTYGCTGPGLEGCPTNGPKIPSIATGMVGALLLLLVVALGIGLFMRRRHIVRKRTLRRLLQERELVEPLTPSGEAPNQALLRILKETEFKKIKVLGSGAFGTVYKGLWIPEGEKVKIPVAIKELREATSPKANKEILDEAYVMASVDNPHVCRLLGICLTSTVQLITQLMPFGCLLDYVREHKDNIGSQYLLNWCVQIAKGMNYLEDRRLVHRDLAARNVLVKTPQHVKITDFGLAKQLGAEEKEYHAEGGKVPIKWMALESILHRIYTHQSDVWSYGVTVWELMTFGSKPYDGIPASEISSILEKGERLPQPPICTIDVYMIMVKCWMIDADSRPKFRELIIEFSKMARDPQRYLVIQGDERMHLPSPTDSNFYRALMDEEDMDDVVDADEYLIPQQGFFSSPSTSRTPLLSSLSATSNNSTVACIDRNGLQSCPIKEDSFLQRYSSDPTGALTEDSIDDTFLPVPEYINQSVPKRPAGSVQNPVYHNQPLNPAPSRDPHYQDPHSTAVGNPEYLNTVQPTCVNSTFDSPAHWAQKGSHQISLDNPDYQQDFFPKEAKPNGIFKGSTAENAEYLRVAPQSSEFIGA
Description: as §1

panel of 442 kinases [3] = target: T3, panel of 442 kinases (Homo sapiens, UniProt P78356); settings: Compound Concentration 10 µM
T3 construct: purchased KINOMEscan
T3 sequence (P78356 1-416): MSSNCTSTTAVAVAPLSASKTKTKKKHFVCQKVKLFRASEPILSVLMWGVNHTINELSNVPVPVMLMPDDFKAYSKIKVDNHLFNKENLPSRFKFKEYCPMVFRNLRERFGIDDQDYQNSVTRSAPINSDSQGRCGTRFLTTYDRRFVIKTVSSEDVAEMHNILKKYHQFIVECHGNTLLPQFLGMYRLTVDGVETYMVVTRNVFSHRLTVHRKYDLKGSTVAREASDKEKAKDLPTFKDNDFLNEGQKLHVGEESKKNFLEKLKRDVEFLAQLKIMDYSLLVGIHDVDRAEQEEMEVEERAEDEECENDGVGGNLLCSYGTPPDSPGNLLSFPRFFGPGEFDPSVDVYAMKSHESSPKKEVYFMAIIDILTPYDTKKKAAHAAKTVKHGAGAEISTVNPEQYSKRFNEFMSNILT
Description: as §1

T1 sequence (O00506 whole entry): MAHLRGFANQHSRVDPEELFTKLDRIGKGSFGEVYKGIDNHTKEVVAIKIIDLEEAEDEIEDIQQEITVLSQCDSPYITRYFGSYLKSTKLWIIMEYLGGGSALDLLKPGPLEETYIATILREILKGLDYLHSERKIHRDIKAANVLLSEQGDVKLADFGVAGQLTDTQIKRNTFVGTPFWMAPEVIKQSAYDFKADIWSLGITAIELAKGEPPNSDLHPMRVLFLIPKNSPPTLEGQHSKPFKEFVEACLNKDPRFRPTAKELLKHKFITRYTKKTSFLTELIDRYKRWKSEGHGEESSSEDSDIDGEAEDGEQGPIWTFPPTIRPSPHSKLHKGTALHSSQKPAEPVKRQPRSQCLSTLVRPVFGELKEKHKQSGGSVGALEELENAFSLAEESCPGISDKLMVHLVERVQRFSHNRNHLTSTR

| SMILES | % Ctrl, YSK1 (panel of 442 kinases [1]) | KINOMEscan: EGFR(L861Q) (panel of 442 kinases [2]) | KINOMEscan: PIP5K2B (panel of 442 kinases [3]) |
| --- | --- | --- | --- |
| COc1cc(C(=O)N2CCC(N3CCN(C)CC3)CC2)ccc1Nc1ncc2c(n1)N(C)c1ccccc1C(=O)N2C [15 (LRRK2-IN-1)] | 68 % Ctrl | 100 | 100 |
| COc1cc(C(=O)N2CCC(N3CCN(C)CC3)CC2)ccc1Nc1ncc2c(n1)N1CCc3cccc(c31)C(=O)N2C [Compound 24] | 60 % Ctrl | 82 | – |
| COc1cc(C(=O)N2CCC(N3CCN(C)CC3)CC2)ccc1Nc1ncc2c(n1)N(C1CCCC1)c1ccccc1C(=O)N2C [Compound 25, 11-cyclopentyl-2-((2-methoxy-4-(4-(4-methylpiperazin-1-yl)piperidine-1-carbonyl)phenyl)amino)-5-methyl-5H-benzo[e]pyrimido[5,4-b][1,4]diazepin-6(11H)-one] | 66 % Ctrl | 89 | 100 |
| CCOc1cc(C(=O)N2CCC(N3CCN(C)CC3)CC2)ccc1Nc1ncc2c(n1)N(C1CCCC1)c1ccccc1C(=O)N2C [Compound 26] | 90 % Ctrl | 100 | 100 |
